From article PMC6182421, “De novo coiled-coil peptides as scaffolds for disrupting protein–protein interactions” (Chemical Science, 2018)

Key:
MCL-1/FITC-BID = target: T1, MCL-1/FITC-BID (Homo sapiens, UniProt Q07820); test: Fluorescence anisotropy competition assay, MCL-1/FITC-BID; format: binding; conditions: for Displacement of FITC-BID from MCL-1 (in words) / IC50 MCL-1/BID: 150 nM MCL-1, 25 nM FITC-BID; for IC50 MCL-1/BID: Table 2, 21 °C, Tris buffer pH 7.4 + 0.01% Triton-X-100, 20-21 h incubation, triplicate
T1 construct: made in house
T1 sequence (Q07820 173-327 limits assumed): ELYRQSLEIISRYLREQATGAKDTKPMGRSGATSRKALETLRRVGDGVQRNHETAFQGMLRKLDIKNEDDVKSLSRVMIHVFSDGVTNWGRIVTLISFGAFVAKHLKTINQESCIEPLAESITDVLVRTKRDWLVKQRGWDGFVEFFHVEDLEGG

[1] = Sedimentation-equilibrium analytical ultracentrifugation; format: physicochemical; conditions: AUC, relative to monomer molecular mass, 20 °C, PBS, 50 μM of each peptide
Method: Sedimentation equilibrium experiments were prepared in PBS (137 mM NaCl, 2.7 mM KCl, 8.2 mM Na2HPO4 and 1.8 mM KH2PO4) at 50 μM peptide concentration for homomeric assemblies and 50 μM peptide concentration of both peptides for heteromeric assemblies and to 120 μL. The reference channel was loaded with 130 μL of PBS solution. Equilibrium distributions were measured twice per speed, in 4 krpm increments, and with rotor speeds from 40 to 60 krpm. Data were fitted to single ideal species models using Ultrascan II (; http://www.ultrascan.uthscsa.edu). […] 95% confidence limits were obtained by Monte Carlo analysis of the fits. The partial specific volume for each of the peptides and the buffer density were calculated using Ultrascan II.
Beckman Proteomelab XL -I analytical ultracentrifuge u sing an An -60 Ti rotor and 2-channel centrepiec es.
Sedimentation equilibrium experiments were made up in PBS (137 mM NaCl, 2.7 mM KCl, 8.2 mM
Na2HP O4 and 1.8 mM KH2PO4) at 50 µM peptide concentration for homomeric assemblies and 50 µM
peptide concentration of both peptides for heteromeric assemblies and to 120 µL. The referenc e channel
was loaded with 130 µL of PBS solution. Equilibrium distributions were measured twice per speed, in 4
krpm increments, and with rotor speeds from 40 to 60 krpm. Data were fitted to single ideal species models […]
were calculated using Ultrascan II.

[2] = Circular dichroism spectroscopy and thermal denaturation; format: physicochemical; conditions: for TM (midpoint of thermal denaturation): MRE222 monitored 5 to 90 °C at 40 °C h^–1, PBS pH 7.4, 50 μM of each peptide; for % helicity: from MRE222, 20 °C, calculation per ref 68
Text: (A & B) CC-Di (pale green), CC-Di_S (lime), CC-Di_E1 (green), CC-Di_E2 (olive). (C & D) CC-Di-A (pink), CC-Di-B (cyan), CC-Di-A : CC-Di-B mixture (purple). (E & F) CC-Di-A_S (red), CC-Di-B (cyan), CC-Di-A_S : CC-Di-B mixture (brown). (G & H) CC-Di-A (pink), CC-Di-B_S (blue), CC-Di-A : CC-Di-B_S mixture (indigo). For heteromeric assemblies (i.e. Panels C–H) the theoretical spectra expected should the pairs of peptides not interact are depicted by grey dashes. Conditions: all experiments were performed in phosphate-buffered saline (PBS; pH 7.4) at 50 μM concentration of each peptide. Equilibrium CD spectra were recorded at 20 °C.
CD spectra were collected using a JASCO J810 spectropolarimeter coupled to a Peltier temperature controller. Peptide-containing solutions were freshly prepared in PBS (pH 7.4) with concentrations calculated from UV absorption at 280 nm (ε(Tyr) = […]).[78] Samples were examined at 50 μM concentration for lone peptides and 50 + 50 μM for two peptide heterodimeric examples, in a 1 mm quartz cuvette. […] Thermal denaturation experiments were conducted by ramping temperature from 5 to 90 °C at 40 °C h^–1. Full spectra (260–190 nm, 5 scans) were recorded at 5 °C and 20 °C, while the CD signal at 222 nm was recorded across the full temperature range at 1 °C intervals (1 nm interval, 1 nm bandwidth, 16 s response time).

hDM2/Flu-p53 = format: binding; conditions: read-out: IC50, inhibition of Flu-p53/hDM2 (positive control)
BCL-xL/FITC-BID = target: T2, BCL-xL/FITC-BID (Homo sapiens, UniProt Q07817, DEL27-82); test: Fluorescence anisotropy competition assay, BCL-xL/FITC-BID; format: binding; conditions: competition titration, 20-21 h incubation
T2 construct: made in house
T2 sequence (Q07817 with tags, fused parts or gaps DEL27-82 limits assumed, species assumed): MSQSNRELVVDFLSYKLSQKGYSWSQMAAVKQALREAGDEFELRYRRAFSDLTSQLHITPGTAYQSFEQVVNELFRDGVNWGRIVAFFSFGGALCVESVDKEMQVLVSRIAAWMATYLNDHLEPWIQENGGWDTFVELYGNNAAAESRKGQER

[3] = PBS pH 7.4, 50 μM of each peptide

## Ac-GEILALKQEILRLIGDNVALKQEILNLKQGYG-NH2 [CC-Di_E1]
MCL-1/FITC-BID
  IC50: 700 ± 50 nM

## Ac-G EIAALKQ EIAALKK ENAALKQ EIAALKQ GYG-NH [CC-Di, de novo designed homodimeric coiled-coil peptide, unmodified scaffold]
MCL-1/FITC-BID
  Displacement of FITC-BID from MCL-1 (in words): did not displace FITC-BID
  IC50 MCL-1/BID: No response
[1]
  Oligomer state: 1.96
[2]
  TM (midpoint of thermal denaturation): 75 °C
[2]; [3]
  % helicity: 90%

## Ac-G KIAALKQ KIAALKK KNAALKQ KIAALKQ GYG-NH [CC-Di-B, basic peptide of the obligate heterodimer CC-Di-AB]
MCL-1/FITC-BID
  Displacement of FITC-BID from MCL-1 (in words): neither of the free peptides, CC-Di-B or CC-Di-B_S, competed with FITC-BID
  IC50 MCL-1/BID: No response
[2]
  TM (midpoint of thermal denaturation): 38 °C
[2]; [3]
  % helicity: 71%

## COc1ccc(C2=N[C@@H](c3ccc(Cl)cc3)[C@@H](c3ccc(Cl)cc3)N2C(=O)N2CCNC(=O)C2)c(OC(C)C)c1 [Nutlin-3a]
hDM2/Flu-p53
  IC50: 273 ± 41 nM

## Ac-GEIAALKQEILRLIGDNVALKQEIAALKQGYG-NH2 [CC-Di_S]
BCL-xL/FITC-BID
  Inhibition of BCL-xL/FITC-BID (in words): inconclusive

## Ac-G EIAALEQ EIAALEK ENAALEQ EIAALEQ GYG-NH [CC-Di-A, acidic peptide of the obligate heterodimer CC-Di-AB]
MCL-1/FITC-BID
  Displacement of FITC-BID from MCL-1 (in words): does not bind MCL-1
  IC50 MCL-1/BID: No response
[2]; CD at 222 nm, 20 °C, PBS pH 7.4, 50 μM of each peptide
  MRE222: –6577 deg cm^2 dmol res^–1
[2]
  TM (midpoint of thermal denaturation): NA (<0) °C
[2]; [3]
  % helicity: 19%

## Ac-G KIAALKQ KILRLIG DNVALKQ KIAALKQ GYG-NH [CC-Di-B_S, basic peptide with the short motif graft that should partner peptide CC-Di-A]
MCL-1/FITC-BID
  Displacement of FITC-BID from MCL-1 (in words): neither of the free peptides, CC-Di-B or CC-Di-B_S, competed with FITC-BID
  IC50 MCL-1/BID: No response
[2]
  TM (midpoint of thermal denaturation): 27 °C
[2]; [3]
  % helicity: 46%
